Test results reported in article PMC8003627, “Synthesis and Biological Evaluation of 2,3,4-Triaryl-1,2,4-oxadiazol-5-ones as p38 MAPK Inhibitors” (Molecules, 2021).

Target: p38α MAP kinase (Homo sapiens, UniProt Q16539)
Experiment: p38α MAP kinase inhibition assay (non radioactive immunosorbent enzyme assay, ATF-2 phosphorylation; Ultra Glo Promega kit)
Assay type: biochemical
Conditions: mean of four separated experiments; compounds assayed at 10^−4 to 10^−8 M

Chain of p38α MAP kinase (Q16539 whole entry): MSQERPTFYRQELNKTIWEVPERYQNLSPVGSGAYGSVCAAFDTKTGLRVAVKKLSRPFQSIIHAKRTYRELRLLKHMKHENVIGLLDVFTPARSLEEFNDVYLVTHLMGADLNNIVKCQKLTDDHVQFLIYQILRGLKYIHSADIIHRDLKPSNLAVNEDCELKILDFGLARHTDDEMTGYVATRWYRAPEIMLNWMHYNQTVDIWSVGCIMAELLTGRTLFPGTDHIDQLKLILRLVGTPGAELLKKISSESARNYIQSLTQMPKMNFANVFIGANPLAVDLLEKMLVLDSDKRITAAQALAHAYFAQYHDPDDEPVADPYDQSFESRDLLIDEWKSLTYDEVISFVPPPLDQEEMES

Row | IC50 [µM] | Compound
1 | 60.5 | O=C1ON(Cc2ccccc2)C(c2ccccc2)N1c1ccc([N+](=O)[O-])cc1 (centres unmarked) [Compound 3h, 2-Benzyl-4-(4-nitrophenyl)-3-phenyl-1,2,4-oxadiazolidin-5-one]
2 | 18.5 | CC1N(Cc2ccccc2)OC(=O)N1c1ccc(F)cc1 (centres unmarked) [Compound 3i, 2-Benzyl-4-(4-fluorophenyl)-3-methyl-1,2,4-oxadiazolidin-5-one]
3 | 22.8 | CC1N(c2ccccc2)OC(=O)N1c1ccc(F)cc1 (centres unmarked) [Compound 3l, 2-Phenyl-4-(4-fluorophenyl)-3-methyl-1,2,4-oxadiazolidin-5-one]

The remaining lines, values behind:

Row | Compound | IC50 [µM]
4 | O=C1ON(c2ccccc2)C(c2ccncc2)N1c1ccc(C(F)(F)F)cc1 (centres unmarked) [Compound 3c, 2-Phenyl-4-(4-trifluoromethyl)-3-(pyridin-4-yl)-1,2,4-oxadiazolidin-5-one] | 2
5 | O=C1ON(c2ccccc2)C(c2ccncc2)N1c1ccc(Cl)cc1 (centres unmarked) [Compound 3d, 2-Phenyl-4-(4-chlorophenyl)-3-(pyridin-4-yl)-1,2,4-oxadiazolidin-5-one] | 1.5
6 | O=C1ON(Cc2ccccc2)C(c2ccncc2)N1c1ccc(F)cc1 (centres unmarked) [Compound 3e, 2-Benzyl-4-(4-fluorophenyl)-3-(pyridin-4-yl)-1,2,4-oxadiazolidin-5-one] | 0.08
7 | O=C1ON(Cc2ccccc2)C(c2ccncc2)N1c1ccc([N+](=O)[O-])cc1 (centres unmarked) [Compound 3f, 2-Benzyl-4-(4-nitrophenyl)-3-(pyridin-4-yl)-1,2,4-oxadiazolidin-5-one] | 0.15
8 | O=C1ON(Cc2ccccc2)C(c2ccccc2)N1c1ccc(F)cc1 (centres unmarked) [Compound 3g, 2-Benzyl-4-(4-fluorophenyl)-3-phenyl-1,2,4-oxadiazolidin-5-one] | 15.1
